Experimental data as given in ChEMBL document CHEMBL5614367, “Hydroxamic acid hybrids: Histone deacetylase inhibitors with anticancer therapeutic potency” (Eur J Med Chem, 2023).

Key:
[1] = system: WSUDLCL2; assay: Antitumor activity against human WSUDLCL2 cells xenografted in mouse assessed as tumor growth inhibition at 50 mg/kg, ip administered for 21 days; assay type: functional; conditions: WSUDLCL2, 504 h, time 21 day, read-out: TGI
[2] = system: WSUDLCL2; assay: Antiproliferative activity against human WSUDLCL2 cells measured after 72 hrs by CCK-8 assay; assay type: functional, cell-based; conditions: WSUDLCL2, 72 h
[3] = system: K562; assay: Antiproliferative activity against human K562 cells measured after 72 hrs by CCK-8 assay; assay type: functional, cell-based; conditions: K562, 72 h
[4] = system: MV4-11; assay: Antiproliferative activity against human MV4-11 cells measured after 72 hrs by CCK-8 assay; assay type: functional, cell-based; conditions: MV4-11, 72 h
[5] = system: HEL; assay: Antiproliferative activity against human HEL cells measured after 72 hrs by CCK-8 assay; assay type: functional, cell-based
[6] = system: SU-DHL-2; assay: Antiproliferative activity against human SU-DHL-2 cells measured after 72 hrs by CCK-8 assay; assay type: functional, cell-based; conditions: SU-DHL-2, 72 h
[7] = system: Jurkat; assay: Antiproliferative activity against human Jurkat cells; assay type: functional, cell-based
[8] = system: K562; assay: Antiproliferative activity against human K562 cells; assay type: functional, cell-based
[9] = system: MOLT-4; assay: Antiproliferative activity against human MOLT-4 cells; assay type: functional, cell-based
[10] = system: TALL-1; assay: Antiproliferative activity against human TALL-1 cells; assay type: functional, cell-based
[11] = molecular target: T1, Protein deacetylase HDAC6 (Homo sapiens, UniProt Q9UBN7); assay: Inhibition of HDAC6 (unknown origin)
T1 sequence (Q9UBN7 whole entry): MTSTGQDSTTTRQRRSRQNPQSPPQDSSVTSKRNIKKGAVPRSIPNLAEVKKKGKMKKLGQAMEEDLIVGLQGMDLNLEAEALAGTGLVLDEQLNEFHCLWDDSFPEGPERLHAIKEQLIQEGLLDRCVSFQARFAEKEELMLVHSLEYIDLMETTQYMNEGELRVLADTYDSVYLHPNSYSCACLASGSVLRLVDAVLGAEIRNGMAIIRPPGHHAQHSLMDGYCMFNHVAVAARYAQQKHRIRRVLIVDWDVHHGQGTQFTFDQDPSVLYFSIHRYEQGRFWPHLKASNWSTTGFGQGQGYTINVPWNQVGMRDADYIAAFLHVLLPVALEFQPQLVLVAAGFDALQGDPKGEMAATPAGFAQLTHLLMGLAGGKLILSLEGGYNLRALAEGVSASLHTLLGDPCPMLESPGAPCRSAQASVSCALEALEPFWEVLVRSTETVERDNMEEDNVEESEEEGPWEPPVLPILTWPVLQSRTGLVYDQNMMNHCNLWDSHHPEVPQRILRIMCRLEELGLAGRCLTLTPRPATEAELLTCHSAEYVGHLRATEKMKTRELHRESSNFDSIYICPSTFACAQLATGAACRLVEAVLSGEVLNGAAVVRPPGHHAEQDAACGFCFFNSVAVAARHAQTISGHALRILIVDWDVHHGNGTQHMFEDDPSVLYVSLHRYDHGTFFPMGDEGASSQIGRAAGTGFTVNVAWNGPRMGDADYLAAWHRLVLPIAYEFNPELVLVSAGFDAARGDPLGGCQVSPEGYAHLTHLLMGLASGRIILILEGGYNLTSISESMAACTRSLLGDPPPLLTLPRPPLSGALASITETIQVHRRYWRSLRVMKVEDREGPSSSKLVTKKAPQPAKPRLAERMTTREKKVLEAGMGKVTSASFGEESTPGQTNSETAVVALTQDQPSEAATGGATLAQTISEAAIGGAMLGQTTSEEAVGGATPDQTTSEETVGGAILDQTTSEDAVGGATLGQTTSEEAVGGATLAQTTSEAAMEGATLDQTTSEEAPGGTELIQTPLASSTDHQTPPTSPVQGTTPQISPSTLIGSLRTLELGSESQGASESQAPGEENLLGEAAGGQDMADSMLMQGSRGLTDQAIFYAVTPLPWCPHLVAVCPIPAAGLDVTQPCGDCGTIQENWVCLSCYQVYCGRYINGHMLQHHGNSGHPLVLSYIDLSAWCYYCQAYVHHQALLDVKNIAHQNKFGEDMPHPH

[12] = system: HL-60; assay: Antiproliferative activity against human HL-60 cells; assay type: functional, cell-based
[13] = system: CCRF-HSB-2; assay: Antiproliferative activity against human CCRF-HSB-2 cells; assay type: functional, cell-based
[14] = system: A549; assay: Antitumor activity against human A549 cells xenografted in zebrafish model assessed as inhibition of cell proliferation incubated for 5 days by fluorescence microscopic analysis; assay type: functional, cell-based; conditions: A549, 120 h
[15] = system: HGC-27; assay: cells; assay type: functional, cell-based; conditions: Homo sapiens, HGC-27, 72 h
[16] = system: KYSE-30; assay: cells; assay type: functional, cell-based; conditions: Homo sapiens, KYSE-30, 72 h
[17] = molecular target: T2, Histone deacetylase 2 (Homo sapiens, UniProt Q92769); assay: Inhibition of HDAC2 (unknown origin) incubated for 30 mins by fluorescence based microplate reader analysis
T2 sequence (Q92769 whole entry): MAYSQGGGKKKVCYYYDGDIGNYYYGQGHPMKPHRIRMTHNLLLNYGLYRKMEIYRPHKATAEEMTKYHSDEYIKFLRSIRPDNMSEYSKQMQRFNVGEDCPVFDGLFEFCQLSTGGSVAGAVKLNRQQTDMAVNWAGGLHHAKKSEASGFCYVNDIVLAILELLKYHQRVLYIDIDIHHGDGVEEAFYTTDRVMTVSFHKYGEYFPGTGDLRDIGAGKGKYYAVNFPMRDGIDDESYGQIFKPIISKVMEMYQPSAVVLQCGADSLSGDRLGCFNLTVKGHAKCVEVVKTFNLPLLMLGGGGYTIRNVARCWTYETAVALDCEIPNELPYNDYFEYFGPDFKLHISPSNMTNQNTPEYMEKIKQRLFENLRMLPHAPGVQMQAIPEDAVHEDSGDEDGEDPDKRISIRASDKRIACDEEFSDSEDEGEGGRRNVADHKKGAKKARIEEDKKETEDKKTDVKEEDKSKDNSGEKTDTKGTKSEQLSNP

[18] = Cytotoxicity against rat H9c2 cells assessed as inhibition of cell growth incubated for 72 hrs by MTT assay; assay type: toxicity, cell-based
[19] = molecular target: T3, Histone deacetylase 3 (Homo sapiens, UniProt O15379); assay: Inhibition of HDAC3 (unknown origin) incubated for 30 mins by fluorescence based microplate reader analysis
T3 sequence (O15379 whole entry): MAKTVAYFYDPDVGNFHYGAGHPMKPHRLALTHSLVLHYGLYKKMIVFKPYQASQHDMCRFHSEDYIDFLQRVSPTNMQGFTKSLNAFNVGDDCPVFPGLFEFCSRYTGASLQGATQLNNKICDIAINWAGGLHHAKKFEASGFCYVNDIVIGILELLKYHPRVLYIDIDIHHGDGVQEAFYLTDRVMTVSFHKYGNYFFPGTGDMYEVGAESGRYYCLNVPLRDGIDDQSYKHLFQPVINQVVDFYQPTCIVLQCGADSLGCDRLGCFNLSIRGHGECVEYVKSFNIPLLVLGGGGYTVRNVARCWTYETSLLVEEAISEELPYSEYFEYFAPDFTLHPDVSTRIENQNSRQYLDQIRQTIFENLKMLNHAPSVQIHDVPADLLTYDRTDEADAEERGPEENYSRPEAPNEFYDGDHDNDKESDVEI

[20] = system: Raji; assay: cells; assay type: functional, cell-based; conditions: Homo sapiens, 72 h
[21] = Cytotoxicity against human CCC-HEL-1 cells assessed as inhibition of cell growth incubated for 72 hrs by MTT assay; assay type: toxicity, cell-based
[22] = system: HepG2; assay: cells; assay type: functional, cell-based; conditions: Homo sapiens, HepG2, 72 h
[23] = system: HL-60; assay: cells; assay type: functional, cell-based; conditions: Homo sapiens, HL-60, 72 h
[24] = molecular target: T1, Protein deacetylase HDAC6; assay: Inhibition of HDAC6 (unknown origin) incubated for 30 mins by fluorescence based microplate reader analysis
[25] = system: TPC1; assay: cells; assay type: functional, cell-based; conditions: Homo sapiens, TPC1, 72 h
[26] = system: A549; assay: cells; assay type: functional, cell-based; conditions: Homo sapiens, A549, 72 h
[27] = Cytotoxicity against HEK293T cells; assay type: toxicity, cell-based, HEK-293T; conditions: human
[28] = molecular target: Histone deacetylase 4 (Homo sapiens, UniProt P56524); assay: Inhibition of HDAC4 (unknown origin)
Sequence of Histone deacetylase 4 (P56524 whole entry): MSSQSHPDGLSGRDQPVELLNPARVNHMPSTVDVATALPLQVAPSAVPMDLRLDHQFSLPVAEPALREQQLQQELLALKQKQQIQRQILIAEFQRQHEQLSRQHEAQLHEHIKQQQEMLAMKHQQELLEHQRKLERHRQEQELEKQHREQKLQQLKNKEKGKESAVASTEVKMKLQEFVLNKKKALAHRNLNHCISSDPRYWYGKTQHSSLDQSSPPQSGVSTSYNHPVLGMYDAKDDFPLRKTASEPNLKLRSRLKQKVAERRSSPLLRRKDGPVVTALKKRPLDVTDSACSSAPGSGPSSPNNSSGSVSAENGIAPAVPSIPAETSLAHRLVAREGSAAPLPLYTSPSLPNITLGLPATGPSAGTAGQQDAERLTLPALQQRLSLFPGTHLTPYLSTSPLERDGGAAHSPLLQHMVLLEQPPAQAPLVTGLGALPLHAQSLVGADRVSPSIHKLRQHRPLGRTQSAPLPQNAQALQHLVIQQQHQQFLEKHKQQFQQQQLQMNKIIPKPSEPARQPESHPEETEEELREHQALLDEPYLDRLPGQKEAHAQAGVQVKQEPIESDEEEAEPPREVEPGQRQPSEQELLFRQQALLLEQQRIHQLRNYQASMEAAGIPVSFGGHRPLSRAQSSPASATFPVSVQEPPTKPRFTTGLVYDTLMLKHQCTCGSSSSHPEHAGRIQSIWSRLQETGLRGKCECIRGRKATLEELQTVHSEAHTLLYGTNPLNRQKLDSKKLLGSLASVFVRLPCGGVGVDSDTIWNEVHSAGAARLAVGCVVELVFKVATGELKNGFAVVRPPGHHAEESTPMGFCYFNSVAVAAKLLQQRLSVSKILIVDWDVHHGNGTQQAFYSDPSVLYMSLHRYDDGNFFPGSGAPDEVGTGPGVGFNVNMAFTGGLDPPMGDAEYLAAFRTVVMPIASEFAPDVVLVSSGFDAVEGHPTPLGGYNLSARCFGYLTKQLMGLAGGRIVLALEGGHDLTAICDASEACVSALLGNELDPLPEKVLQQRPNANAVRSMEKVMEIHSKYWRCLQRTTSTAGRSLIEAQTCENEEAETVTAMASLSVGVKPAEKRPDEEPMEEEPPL

[29] = Antitumor activity against mouse WEHI-3 cells implanted in mouse assessed as reduction in tumor growth at 25 mg/kg, ip relative to control; assay type: functional; set-up: scale not given: the % may be the effect or the level left
[30] = molecular target: T2, Histone deacetylase 2; assay: Inhibition of HDAC2 (unknown origin)
[31] = molecular target: T3, Histone deacetylase 3; assay: Inhibition of HDAC3 (unknown origin)
[32] = Antitumor activity against mouse WEHI-3 cells implanted in mouse assessed as survival time at 25 mg/kg, ip (reference value: 16 day); assay type: functional
[33] = molecular target: Histone deacetylase 1 (Homo sapiens, UniProt Q13547); assay: Inhibition of HDAC1 (unknown origin)
Sequence of Histone deacetylase 1 (Q13547 whole entry): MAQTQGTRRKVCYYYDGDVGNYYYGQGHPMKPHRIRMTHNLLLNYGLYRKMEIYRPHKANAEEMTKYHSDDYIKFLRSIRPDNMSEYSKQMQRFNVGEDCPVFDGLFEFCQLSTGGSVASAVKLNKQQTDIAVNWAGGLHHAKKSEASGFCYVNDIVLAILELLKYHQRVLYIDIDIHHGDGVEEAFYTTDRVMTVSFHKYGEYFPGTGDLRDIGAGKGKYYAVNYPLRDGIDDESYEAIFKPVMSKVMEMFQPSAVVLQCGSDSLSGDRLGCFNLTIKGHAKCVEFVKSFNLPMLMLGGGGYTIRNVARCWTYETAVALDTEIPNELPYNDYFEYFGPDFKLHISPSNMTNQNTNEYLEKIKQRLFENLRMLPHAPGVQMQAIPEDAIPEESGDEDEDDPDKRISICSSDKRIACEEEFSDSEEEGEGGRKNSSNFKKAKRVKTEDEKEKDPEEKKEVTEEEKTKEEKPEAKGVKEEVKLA

[34] = Cytotoxicity against human PBMC cells; assay type: toxicity, cell-based
[35] = system: CAPAN-1; assay: Antitumor activity against human CAPAN-1 cells xenografted in mouse assessed as tumor growth inhibition at 50 mg/kg, ip relative to control; assay type: functional; conditions: read-out: TGI
[36] = system: CAPAN-1; assay: Antitumor activity against human CAPAN-1 cells xenografted in mouse assessed as tumor growth inhibition at 50 mg/kg, ip in presence of vorinostat relative to control; assay type: functional; conditions: read-out: TGI
[37] = system: MDA-MB-231; assay: Antitumor activity against human MDA-MB-231 cells xenografted in BALB/c nude mouse assessed as tumor growth inhibition by measuring test to control ratio at 30 mg/kg/day, po measured every 3 days for 22 days relative to control; assay type: functional; conditions: time 22 day
[38] = Metabolic stability in human liver microsomes assessed as half life by LC-MS/MS analysis; assay type: ADME, Microsome
[39] = Metabolic stability in human plasma assessed as half life by LC-MS/MS analysis; assay type: ADME, cell-free
[40] = system: MDA-MB-231; assay: Antitumor activity against human MDA-MB-231 cells xenografted in BALB/c nude mouse assessed as tumor growth inhibition at 30 mg/kg/day, po measured every 3 days for 22 days relative to control; assay type: functional; conditions: MDA-MB-231, 528 h, time 22 day, read-out: TGI
[41] = system: CAPAN-1; assay: Potency index, ratio of vorinostat IC50 to test compound IC50 for antiproliferative activity against human CAPAN-1 cells; assay type: functional
[42] = molecular target: Bromodomain-containing protein 4 (Homo sapiens, UniProt O60885); assay: Inhibition of BRD4 (unknown origin)
[43] = system: CAPAN-1; assay: Antitumor activity against human CAPAN-1 cells xenografted in mouse assessed as tumor growth inhibition at 100 mg/kg, ip relative to control; assay type: functional; conditions: read-out: TGI
[44] = system: CAPAN-1; assay: Antiproliferative activity against human CAPAN-1 cells; assay type: functional, cell-based

C=C[C@@]1(C)CC[C@H](C(=C)CN2CCN(C(=O)CCCCCCC(=O)NO)CC2)C[C@@H]1C(=C)Cn1cccn1
inhibition in vivo at 50 mg/kg [1]: 31.5% | IC50 [2]: 0.79 µM | IC50 [3]: 0.79 µM | IC50 [4]: 0.79 µM | IC50 [5]: 0.79 µM | IC50 [6]: 0.79 µM

O=C(NO)c1ccc(CN(Cc2nnnn2Cc2ccccc2)C(=O)c2ccccc2C(F)(F)F)cc1
IC50 [7]: 22.5 µM | IC50 [8]: 22.5 µM | IC50 [9]: 22.5 µM | IC50 [10]: 22.5 µM | IC50 [11]: 0.06 µM | IC50 [12]: 22.5 µM | IC50 [13]: 22.5 µM

O=C(CCCCCCC(=O)Nc1nc2c(s1)C[C@@H](NC(=O)c1cccc3ccccc13)CC2)NO
IC50 [14]: 1.5 µM | IC50 [15]: 1.22 µM | IC50 [16]: 1.22 µM | IC50 [17]: 0.0014 µM | IC50 at 72 h [18]: 43.8 µM | IC50 [19]: 0.0014 µM | IC50 [20]: 1.22 µM | IC50 at 72 h [21]: 24.4 µM | IC50 [22]: 1.22 µM | IC50 [23]: 1.22 µM | IC50 [24]: 0.0014 µM | IC50 [25]: 1.22 µM | IC50 [26]: 1.22 µM

CNCCOc1ccc(-c2cc(=O)c3cc(OCCCCCC(=O)NO)cc(O)c3o2)cc1
IC50 [27]: 9.49 µM | IC50 [28]: 0.03 µM | Activity [29]: ~65% | IC50 [30]: 0.03 µM | IC50 [31]: 0.03 µM | Survival [32]: 27 days | IC50 [33]: 0.03 µM | IC50 [34]: 11.6 µM | IC50 [11]: 0.03 µM

Cc1sc2c(c1C)C(c1ccc(Cl)cc1)=N[C@@H](CC(=O)OC(C)(C)C)c1nnc(C)n1-2
inhibition in vivo at 50 mg/kg [35]: 41% | inhibition in vivo at 50 mg/kg [36]: 57%

O=C(CCCCCCC(=O)Nc1nc2ccc(OC(F)(F)F)cc2s1)NO
T/C [37]: 55% | half-life [38]: 56 min | half-life [39]: > 120 min | inhibition in vivo at 30 mg/kg/day [40]: 59%

CC1=C(C)C2C(c3ccc(Cl)cc3)=N[C@@H](CC(=O)Nc3ccc(C(=O)NO)cc3)c3nnc(C)n3C2S1 (some centres not stated)
Ratio IC50 [41]: 36 | inhibition in vivo at 50 mg/kg [35]: 69% | IC50 [42]: 0.011 µM | inhibition in vivo at 100 mg/kg [43]: 87.7% | IC50 [33]: 0.021 µM | IC50 [44]: 0.15 µM
